Data published in patent US20080045525A1, “Piperazinyl-Pyridine Analogues” (priority 2004, published 2008).

Molecular target: T1, human capsaicin receptor (Homo sapiens, UniProt Q8NER1)
T1 construct: transfected with the pBK-CMV expression construct encoding the full length human capsaicin receptor; expressed in transfected cells
Test: Calcium mobilization assay, determination of antagonist activity
Assay type: cell-based
Settings: cells expressing human capsaicin receptor; capsaicin at its EC50; FLUO-3 fluorescence
Experimental: A cDNA encoding full length human capsaicin receptor (SEQ ID NO:1, 2 or 3 of U.S. Pat. No. 6,482,611) was subcloned in the plasmid pBK-CMV (Stratagene, La Jolla, Calif.) for recombinant expression in mammalian cells.
Human embryonic kidney (HEK293) cells were transfected with the pBK-CMV expression construct encoding the full length human capsaicin receptor using standard methods. The transfected cells were selected for two weeks in media containing G418 (400 μg/ml) to obtain a pool of stably transfected cells. Independent clones were isolated from this pool by limiting dilution to obtain clonal stable cell lines for use in subsequent experiments.
(§1) Cells transfected with expression plasmids (as described in Example 4) and thereby expressing human capsaicin receptor are seeded and grown to 70-90% confluency in FALCON black-walled, clear-bottomed 96-well plates (#3904, BECTON-DICKINSON, Franklin Lakes, N.J.). The culture medium is emptied from the 96 well plates and FLUO-3 AM calcium sensitive dye (Molecular Probes, Eugene, Oreg.) is added to each well (dye solution: 1 mg FLUO-3 AM, 440 μL DMSO and 440 μl 20% pluronic acid in DMSO, diluted 1:250 in Krebs-Ringer HEPES (KRH) buffer (25 mM HEPES, 5 mM KCl, 0.96 mM NaH2PO4, 1 mM MgSO4, 2 mM CaCl2, 5 mM glucose, 1 mM probenecid, pH 7.4), 50 μl diluted solution per well). Plates are covered with aluminum foil and incubated at 37° C. for 1-2 hours in an environment containing 5% CO2. After the incubation, the dye is emptied from the plates, and the cells are washed once with KRH buffer, and resuspended in KRH buffer.
To measure the ability of a test compound to agonize or antagonize a calcium mobilization response in cells expressing capsaicin receptors to capsaicin or other vanilloid agonist, the EC50 of the agonist capsaicin is first determined. An additional 20 μl of KRH buffer and 1 μl DMSO is added to each well of cells, prepared as described above. 100 μl capsaicin in KRH buffer is automatically transferred by the FLIPR instrument to each well. Capsaicin-induced calcium mobilization is monitored using either FLUOROSKAN ASCENT (Labsystems; Franklin, Mass.) or FLIPR (fluorometric imaging plate reader system; Molecular Devices, Sunnyvale, Calif.) instruments. Data obtained between 30 and 60 seconds after agonist application are used to generate an 8-point concentration response curve, with final capsaicin concentrations of 1 nM to 3 μM. […] software (Synergy Software, Reading, Pa.) is used to fit the data to the equation: y=a*(1/(1+(b/x)^c)) to determine the 50% excitatory concentration (EC50) for the response. In this equation, y is the maximum fluorescence signal, x is the concentration of the agonist or antagonist (in this case, capsaicin), a is the Emax, b corresponds to the EC50 value and c is the Hill coefficient. Determination of Agonist Activity
Test compounds are dissolved in DMSO, diluted in 20 μl KRH buffer so that the final concentration of test compounds in the assay well is between 1 μM and 5 μM, and added to cells prepared as described above. The 96 well plates containing prepared cells and test compounds are incubated in the dark, at room temperature for 0.5 to 6 hours. It is important that the incubation not continue beyond 6 hours. Just prior to determining the fluorescence response, 100 μl capsaicin in KRH buffer at twice the EC50 concentration determined as described above is automatically added by the FLIPR instrument to each well of the 96 well plate for a final sample volume of 200 μl and a final capsaicin concentration equal to the EC50. The final concentration of test compounds in the assay wells is between 1 μM and 5 μM.

T1 sequence (Q8NER1 whole entry): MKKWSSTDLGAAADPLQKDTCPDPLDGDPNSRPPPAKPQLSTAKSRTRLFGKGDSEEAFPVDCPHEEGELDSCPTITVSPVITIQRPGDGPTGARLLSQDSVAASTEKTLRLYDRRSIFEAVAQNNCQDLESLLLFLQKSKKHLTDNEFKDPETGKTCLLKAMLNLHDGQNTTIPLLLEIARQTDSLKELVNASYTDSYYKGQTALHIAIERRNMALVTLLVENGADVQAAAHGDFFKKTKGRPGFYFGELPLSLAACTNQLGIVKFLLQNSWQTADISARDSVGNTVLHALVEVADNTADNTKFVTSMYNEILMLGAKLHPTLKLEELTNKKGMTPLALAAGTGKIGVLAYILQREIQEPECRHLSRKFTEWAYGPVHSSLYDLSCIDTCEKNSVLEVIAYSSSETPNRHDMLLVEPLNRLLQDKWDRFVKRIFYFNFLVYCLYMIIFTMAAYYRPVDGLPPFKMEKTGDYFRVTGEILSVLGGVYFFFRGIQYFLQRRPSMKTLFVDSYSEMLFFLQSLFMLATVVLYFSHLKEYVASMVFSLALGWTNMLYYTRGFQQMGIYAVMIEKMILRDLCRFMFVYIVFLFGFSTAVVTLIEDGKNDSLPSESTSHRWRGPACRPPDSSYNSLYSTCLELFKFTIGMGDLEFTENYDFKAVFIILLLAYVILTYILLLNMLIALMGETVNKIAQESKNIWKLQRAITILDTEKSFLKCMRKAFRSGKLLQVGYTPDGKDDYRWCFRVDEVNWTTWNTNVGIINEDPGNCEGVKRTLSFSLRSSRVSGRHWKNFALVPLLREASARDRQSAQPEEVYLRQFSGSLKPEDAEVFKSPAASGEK

Row | SMILES | IC50 [nM]
1 | OCCC1CCN(c2cc(N3CCN(c4ncccc4C(F)(F)F)CC3)nc(N3CCOCC3)n2)CC1 [2-[1-(2-morpholin-4-yl-6-{4-[3-(trifluoromethyl)pyridin-2-yl]piperazin-1-yl}pyrimidin-4-yl)piperidin-4-yl]ethanol] | ≤ 1000
2 | FC(F)(F)c1cccnc1N1CCN(c2cc(N3CCOCC3)nc(N3CCOCC3)n2)CC1 [4,4′-(6-{4-[3-(trifluoromethyl)pyridin-2-yl]piperazin-1-yl}pyrimidine-2,4-diyl)dimorpholine] | ≤ 1000
3 | FC(F)(F)c1cccnc1N1CCN(c2cc(N3CCCCC3)nc(N3CCOCC3)n2)CC1 [4-(4-piperidin-1-yl-6-{4-[3-(trifluoromethyl)pyridin-2-yl]piperazin-1-yl}pyrimidin-2-yl)morpholine] | ≤ 1000
4 | FC(F)(F)c1cccnc1N1CCN(c2cc(N3CCCC3)nc(N3CCOCC3)n2)CC1 [4-(4-pyrrolidin-1-yl-6-{4-[3-(trifluoromethyl)pyridin-2-yl]piperazin-1-yl}pyrimidin-2-yl)morpholine] | ≤ 1000
5 | Fc1ccc2c(c1)CCN2c1cc(N2CCN(c3ncccc3C(F)(F)F)CC2)nc(N2CCOCC2)n1 [5-fluoro-1-(2-morpholin-4-yl-6-{4-[3-(trifluoromethyl)pyridin-2-yl]piperazin-1-yl}pyrimidin-4-yl)indoline] | ≤ 1000

Now from value to molecule:

Row | IC50 [nM] | SMILES
6 | ≤ 1000 | Cc1cc(C(N)=O)cnc1N1CCN(c2cc(N3CCCCC3)nc(N3CCCC3C)n2)[C@H](C)C1 (stereo partly shown) [5-methyl-6-{3-methyl-4-[2-(2-methylpyrrolidin-1-yl)-6-piperidin-1-ylpyrimidin-4-yl]piperazin-1-yl}nicotinamide]
7 | ≤ 1000 | Cc1cc(C(=O)O)cnc1N1CCN(c2cc(N3CCCCC3)nc(N3CCCC3C)n2)[C@H](C)C1 (stereo partly shown) [5-methyl-6-{3-methyl-4-[2-(2-methylpyrrolidin-1-yl)-6-piperidin-1-ylpyrimidin-4-yl]piperazin-1-yl}nicotinic acid]
8 | ≤ 1000 | Cc1cc(C(=O)O)cnc1N1CCN(c2cc(N3CCC(F)CC3)nc(N3CCCC3C)n2)[C@H](C)C1 (stereo partly shown) [6-{4-[6-(4-fluoropiperidin-1-yl)-2-(2-methylpyrrolidin-1-yl)pyrimidin-4-yl]-3-methylpiperazin-1-yl}-5-methylnicotinic acid]
9 | ≤ 1000 | FC(F)(F)c1cccnc1N1CCN(c2cc(N3CCC4(CC3)OCCO4)nc(N3CCOCC3)n2)CC1 [8-(2-morpholin-4-yl-6-{4-[3-(trifluoromethyl)pyridin-2-yl]piperazin-1-yl}pyrimidin-4-yl)-1,4-dioxa-8-azaspiro[4.5]decane]
10 | ≤ 1000 | Cc1cc(CO)cnc1N1CCN(c2cc(N3CCCCC3)nc(N3CCCC3C)n2)[C@H](C)C1 (stereo partly shown) [(5-methyl-6-{3-methyl-4-[2-(2-methylpyrrolidin-1-yl)-6-piperidin-1-ylpyrimidin-4-yl]piperazin-1-yl}pyridin-3-yl)methanol]
11 | ≤ 1000 | CCOC(=O)c1cnc(N2CCN(c3cc(N4CCCCC4)nc(N4CCCC4C)n3)[C@H](C)C2)c(C)c1 (stereo partly shown) [ethyl 5-methyl-6-{3-methyl-4-[2-(2-methylpyrrolidin-1-yl)-6-piperidin-1-ylpyrimidin-4-yl]piperazin-1-yl}nicotinate]

Molecular target: VR
Test: not given
Settings: typical value, non-selective cation channel blocker; cited from earlier work

Row | SMILES | Ki [nM]
12 | Cl.Cl.Cl.Cl.Cl.Cl.N.N.N.N.N.N.N.N.N.N.N.N.N.N.[O-2].[O-2].[Ru+3].[Ru+3].[Ru+4] [ruthenium red] | ≥ 140000

Molecular target: T1, human capsaicin receptor
Test: Calcium mobilization assay, agonist response (capsaicin positive control)
Assay type: cell-based
Settings: capsaicin as positive control in cells expressing human capsaicin receptor; read-out: approximate EC90 concentration
Experimental: as §1, with “Plates are covered with aluminum foil and incubated at 37° C. for 1-2 hours in an environment containing 5% CO2. After the incubation, the dye is emptied from the plates, and the cells are washed once with KRH buffer, and resuspended in KRH buffer.” left out
To measure the ability of a test compound to agonize or antagonize a calcium mobilization response in cells expressing capsaicin receptors to capsaicin or other vanilloid agonist, the EC50 of the agonist capsaicin is first determined. […] Capsaicin-induced calcium mobilization is monitored using either FLUOROSKAN ASCENT (Labsystems; Franklin, Mass.) or FLIPR (fluorometric imaging plate reader system; Molecular Devices, Sunnyvale, Calif.) instruments. […] In this equation, y is the maximum fluorescence signal, x is the concentration of the agonist or antagonist (in this case, capsaicin), a is the Emax, b corresponds to the EC50 value and c is the Hill coefficient. […]

Row | EC90 [nM] | SMILES
13 | ~100 | COc1cc(CNC(=O)CCCC/C=C/C(C)C)ccc1O [capsaicin]
